The source of these data is patent US7879887B2, “α-amino acid derivatives and medicaments containing the same as an active ingredient” (Nissan Chemical Industries, Ltd., priority 2006, dated 2011).

One test concerns the target T1, Aurora A (Homo sapiens, UniProt O14965).
T1 construct: purchased Upstate Inc. 14-511
T1 sequence (O14965 1-403): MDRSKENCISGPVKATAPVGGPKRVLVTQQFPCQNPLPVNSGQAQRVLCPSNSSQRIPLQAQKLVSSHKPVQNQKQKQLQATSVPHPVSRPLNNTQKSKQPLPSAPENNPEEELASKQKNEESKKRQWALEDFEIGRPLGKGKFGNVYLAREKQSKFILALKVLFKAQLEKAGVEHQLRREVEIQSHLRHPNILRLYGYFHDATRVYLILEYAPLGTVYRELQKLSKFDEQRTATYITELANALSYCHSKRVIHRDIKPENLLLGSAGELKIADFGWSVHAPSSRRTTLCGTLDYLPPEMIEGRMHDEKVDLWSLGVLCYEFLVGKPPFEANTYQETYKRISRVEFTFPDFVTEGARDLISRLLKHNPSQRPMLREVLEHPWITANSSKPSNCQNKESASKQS
Put plainly: In vitro kinase assay, Aurora A. It counts as biochemical. To be noted: recombinant protein (Upstate). Put shortly: (§1)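 Recombinant human enzymes assayed per supplier protocol. IC50 derived with compound-free wells set as 0% inhibition and compound- and enzyme-free wells as 100% inhibition.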

For a further test, the target named is T2, CDK1/Cyclin B complex (Homo sapiens, UniProt P06493).
T2 construct: purchased Upstate Inc. 14-450
T2 sequence (P06493 whole entry): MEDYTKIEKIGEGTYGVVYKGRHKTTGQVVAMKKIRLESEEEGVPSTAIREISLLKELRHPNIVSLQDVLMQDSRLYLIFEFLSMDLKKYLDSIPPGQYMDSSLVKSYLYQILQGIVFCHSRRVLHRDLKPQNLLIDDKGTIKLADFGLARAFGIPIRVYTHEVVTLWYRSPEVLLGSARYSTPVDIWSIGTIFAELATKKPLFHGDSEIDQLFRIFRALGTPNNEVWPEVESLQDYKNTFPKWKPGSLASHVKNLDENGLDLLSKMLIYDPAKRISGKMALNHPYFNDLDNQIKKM
T2 sequence (P14635 whole entry partner): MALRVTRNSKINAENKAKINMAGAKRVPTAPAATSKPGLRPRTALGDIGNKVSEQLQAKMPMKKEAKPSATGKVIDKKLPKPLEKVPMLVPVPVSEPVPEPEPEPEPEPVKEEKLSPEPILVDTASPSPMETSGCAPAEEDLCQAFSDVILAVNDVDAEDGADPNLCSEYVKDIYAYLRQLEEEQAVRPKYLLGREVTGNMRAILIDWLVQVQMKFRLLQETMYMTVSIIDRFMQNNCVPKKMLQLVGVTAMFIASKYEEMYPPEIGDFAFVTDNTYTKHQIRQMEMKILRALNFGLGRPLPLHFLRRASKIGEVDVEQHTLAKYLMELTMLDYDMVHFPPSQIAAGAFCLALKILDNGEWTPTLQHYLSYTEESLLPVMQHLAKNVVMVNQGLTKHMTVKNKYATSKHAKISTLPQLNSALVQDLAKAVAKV
Nature of the test: In vitro kinase assay, CDK1/Cyclin B complex. It counts as biochemical. The conditions noted are these: recombinant protein (Upstate). The gist of the method: as §1

For another test, the target named is T3, CDK3/Cyclin E complex (Homo sapiens, UniProt Q00526).
T3 construct: purchased Upstate Inc. 14-487
T3 sequence (Q00526 whole entry): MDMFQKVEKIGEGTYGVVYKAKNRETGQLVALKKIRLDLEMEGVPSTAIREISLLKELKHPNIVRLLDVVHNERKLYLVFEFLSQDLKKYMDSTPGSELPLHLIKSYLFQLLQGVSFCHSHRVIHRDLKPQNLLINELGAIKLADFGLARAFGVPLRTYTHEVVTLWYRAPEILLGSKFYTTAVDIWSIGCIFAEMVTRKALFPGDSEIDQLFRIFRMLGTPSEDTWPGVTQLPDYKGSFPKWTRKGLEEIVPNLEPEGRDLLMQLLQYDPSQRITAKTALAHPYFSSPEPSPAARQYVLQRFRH
T3 sequence (P24864 whole entry partner): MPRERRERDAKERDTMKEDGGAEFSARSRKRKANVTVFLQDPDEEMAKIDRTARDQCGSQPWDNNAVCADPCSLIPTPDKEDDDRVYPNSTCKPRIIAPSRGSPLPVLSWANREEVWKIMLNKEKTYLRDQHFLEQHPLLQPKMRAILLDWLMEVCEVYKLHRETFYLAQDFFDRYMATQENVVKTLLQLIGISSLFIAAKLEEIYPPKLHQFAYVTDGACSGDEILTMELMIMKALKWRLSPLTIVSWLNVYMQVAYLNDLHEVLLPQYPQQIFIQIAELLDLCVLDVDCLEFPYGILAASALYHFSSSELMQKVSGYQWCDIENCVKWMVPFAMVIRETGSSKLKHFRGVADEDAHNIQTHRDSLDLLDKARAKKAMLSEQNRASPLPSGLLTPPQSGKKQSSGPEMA
Nature of the test: In vitro kinase assay, CDK3/Cyclin E complex. The conditions noted are these: recombinant protein (Upstate); read-out: CDK3/cyclinE IC50. The test is classed as biochemical. As to the method: Inhibitory activity against Aurora A, CDK1/Cyclin B complex, CDK2/Cyclin E complex and CDK3/Cyclin E complex were measured by in vitro kinase assay using recombinant proteins.

The subject of test [1] is colon carcinoma cell line SW620. Put plainly: Cell proliferation inhibitory activity, SW620. The test is classed as cell-based, human. To be noted: Homo sapiens, SW-620, 96 h, cells counted 4 days later with Cell Counting Kit-8. Put shortly:
(§2)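 Read-out: Cell Counting Kit-8 cell counts taken 4 days after cells in medium were added to graded test-substance concentrations. Incubation was at 37° C under 5% CO2. IC50 values were based on vehicle wells set to 0% inhibition and wells lacking compound and cells set to 100%.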
Background: Tetrazolium assays rely on reduction of a dye to a coloured formazan, in cell work by metabolically active cells.

Test [2] deals with prostate cancer cell line DU 145. Put plainly: Cell proliferation inhibitory activity, DU 145. It counts as cell-based, human. To be noted: Homo sapiens, 96 h, cells counted 4 days later with Cell Counting Kit-8. The gist of the method: as §2
For test [3], the system named is lung carcinoma cell line NCI-H460. Put plainly: Cell proliferation inhibitory activity, NCI-H460. It counts as cell-based. To be noted: Homo sapiens, 96 h, cells counted 4 days later with Cell Counting Kit-8. The gist of the method: as §2
For the next test, the system named is leukemia cell line KG-1a. Put plainly: Cell proliferation inhibitory activity, KG-1a. It counts as cell-based. To be noted: Homo sapiens, 96 h, cells counted 4 days later with Cell Counting Kit-8. Put shortly: as §2
In test [4] the test system is breast cancer cell line MDA-MB-231. Put plainly: Cell proliferation inhibitory activity, MDA-MB-231. It counts as cell-based. The conditions noted are these: Homo sapiens, 96 h, cells counted 4 days later with Cell Counting Kit-8. The gist of the method:
as §2

The subject of test [5] is ovarian cancer cell line IGROV1. Put plainly: Cell proliferation inhibitory activity, IGROV1. To be noted: Homo sapiens, IGROV-1, 96 h, cells counted 4 days later with Cell Counting Kit-8. It counts as cell-based. Put shortly:
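Suspended cells were added to test substance solutions at a range of concentrations and cultured for 4 days at 37° C in a 5% CO2 incubator. Viable cell numbers were then determined by CCK-8.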

The test system of test [6] is pancreatic cancer cell line MIAPaCa-2. Put plainly: Cell proliferation inhibitory activity, MIAPaCa-2. The test is classed as cell-based. The conditions noted are these: Homo sapiens, MIA PaCa-2, 96 h; cells counted 4 days later, Cell Counting Kit-8. As to the method: Evaluations were carried out using colon carcinoma cell line SW620 (Cat. No. CCL-227), lung carcinoma cell line NCI-H460 (Cat. No. HTB-177), prostate cancer cell line DU 145 (Cat. No. HTB-81), breast cancer cell line MDA-MB-231 (Cat. No. HTB26) and leukemia cell line KG-1a (Cat. No. CCL-246.1) purchased from ATCC, pancreatic cancer cell line MIAPaCa-2 (Cat. No. CRL-1420) purchased from Dainippon Pharmaceutical, and ovarian cancer cell line IGROV1 received from the Netherland Cancer Institute. The cells were cultured under the conditions recommended by the supplier for each cell line, or with respect to IGROV1, according to the method described in Cancer Res. 59: 4559-4563, 1999. Cells suspended in media were added to solutions containing the test substances at various concentrations followed by culturing in a 5% CO2 incubator at 37° C. The numbers of cells were counted 4 days later with the Cell Counting Kit-8. IC50 values were calculated by assigning measured values in the case of not containing a test substance to an inhibition of 0%, and assigning measured values in the case of not containing a test substance or cells to an inhibition of 100%.

Turning to `CNC(=O)c1cc(NC2(C(=O)Nc3nc4ccc5[nH]ncc5c4s3)CC2)ccc1Cl` [compound 126], the IC50 came out at 58 nM on Aurora A; 145 nM at CDK1/Cyclin B complex; 38 nM at CDK3/Cyclin E complex; 1500 nM in test [1]; 3700 nM in test [2]; 4200 nM in test [3]. For the same molecule, the IC50 with leukemia cell line KG-1a is below 100 nM.
Take `O=C(Nc1nc2ccc3[nH]ncc3c2s1)C1(Nc2ccc(Cl)cc2)CC1` [compound 117]: the IC50 is 317 nM on Aurora A; 358 nM on CDK1/Cyclin B complex; 44 nM on CDK3/Cyclin E complex; 500 nM in [1]; 2200 nM in test [2]; 2800 nM in [3]. Further, the IC50 in test [4] is 2.5 µM; in [5], 2.7 µM; in the test on leukemia cell line KG-1a, below 100 nM.
Consider `CC(C)(Nc1ccc(Cl)c(O)c1)C(=O)Nc1nc2c(C(F)(F)F)cc3[nH]ncc3c2s1` [compound 95], for which the IC50 at Aurora A came to 340 nM; at CDK1/Cyclin B complex, 105 nM; on CDK3/Cyclin E complex it was 22 nM; in test [1] it was 400 nM; in test [6], 4.6 µM; in test [2], 1100 nM. Further, the IC50 came to 1200 nM in [3] and 100 nM with leukemia cell line KG-1a.
Regarding `O=C(CNc1ccc(Cl)c(O)c1)Nc1nc2ccc3[nH]ncc3c2s1` [compound 6], the IC50 at Aurora A was 257 nM; on CDK1/Cyclin B complex, 255 nM; at CDK3/Cyclin E complex it was 28 nM; in test [1] it was 1500 nM; in test [4], 2.6 µM; in test [5], 4.3 µM. In addition, the IC50 with leukemia cell line KG-1a is below 100 nM.
`CCOC(=O)c1cc(NC2(C(=O)Nc3nc4ccc5[nH]ncc5c4s3)CC2)ccc1Cl` [compound 118]: the IC50 is 236 nM on Aurora A, 169 nM on CDK3/Cyclin E complex, 2000 nM in [1] and below 100 nM with leukemia cell line KG-1a.
Take `CCNC(=O)c1cc(NC(C)(C)C(=O)Nc2nc3c(C(F)(F)F)cc4[nH]ncc4c3s2)ccc1F` [compound 58]: the IC50 on CDK1/Cyclin B complex came to 186 nM; on CDK3/Cyclin E complex it was 47 nM; in test [1], 500 nM; in test [6], 4 µM; in [2] it was 900 nM; in test [3] it was 1300 nM. Moreover, the results for the IC50 (in test [4]; with leukemia cell line KG-1a) were 4.7 µM and 300 nM, respectively.
`CC(C)(Nc1ccc(Cl)c(C(=O)NCCCC(=O)O)c1)C(=O)Nc1nc2c(C(F)(F)F)cc3[nH]ncc3c2s1` [compound 144]: the IC50 on Aurora A amounted to 88 nM; on CDK1/Cyclin B complex it was 297 nM; at CDK3/Cyclin E complex, 180 nM; in test [1], 3300 nM.
Regarding `CC(C)(Nc1ccc(Cl)cc1)C(=O)Nc1nc2ccc3[nH]ncc3c2s1` [compound 35], the IC50 on Aurora A was 428 nM; at CDK3/Cyclin E complex, 80 nM; in test [1], 700 nM; in test [2] it was 2500 nM; with leukemia cell line KG-1a, below 100 nM.
As to `CC(=O)Nc1cc(NC2(C(=O)Nc3nc4ccc5[nH]ncc5c4s3)CC2)ccc1F` [compound 120], the IC50 on Aurora A worked out at 164 nM; at CDK3/Cyclin E complex, 105 nM; in test [1], 800 nM; in [2] it was 3300 nM; in [3], 1900 nM; in test [5], 4.8 µM. Further, in the test on leukemia cell line KG-1a, the IC50 is below 100 nM.
Turning to `CC(=O)Nc1cc(NCC(=O)Nc2nc3ccc4[nH]ncc4c3s2)ccc1Cl` [compound 16], the IC50 at Aurora A came out at 278 nM; on CDK3/Cyclin E complex, 50 nM; in [1] it was 1200 nM; in test [6], 4.4 µM; in test [2], 3200 nM; in test [3], 3200 nM. Moreover, the IC50 in test [4] is 4.4 µM; in the test with leukemia cell line KG-1a, below 100 nM.
On to `CCC(=O)Nc1cc(NC(C)(C)C(=O)Nc2nc3ccc4[nH]ncc4c3s2)ccc1Cl` [compound 129], for which the IC50 stood at 113 nM on Aurora A; 103 nM on CDK3/Cyclin E complex; 800 nM in test [1]; 2600 nM in test [2]; 2700 nM in test [3]; 4.8 µM in test [5]. Moreover, in the test with leukemia cell line KG-1a, the IC50 is below 100 nM.
